Key:
[1] = system: Methicillin Resistant Staphylococcus aureus strain USA 200; assay: Minimum inhibitory concentration (MIC), CLSI broth micro-dilution, S. aureus; type: cell-based; conditions: Staphylococcus aureus, MRSA / USA200; Table 6; MRSA USA 200; cation adjusted Mueller Hinton Broth + 0.002% Tween-80; 35° C., 22 hours
Summary of the method: (§1)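 Antibacterial potency is measured as MIC by the CLSI broth dilution method. Bacteria at OD600 0.0005 in Tween-80-supplemented cation-adjusted Mueller Hinton broth face ten twofold compound dilutions for 22 h at 35° C.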

[2] = system: Escherichia coli ATCC 25922; assay: Minimum inhibitory concentration (MIC), CLSI broth micro-dilution, E. coli; type: cell-based; conditions: Escherichia coli, ATCC25922, 22 h, Table 6, cation adjusted Mueller Hinton Broth + 0.002% Tween-80, 35° C.
Summary of the method: as §1

Row | Compound | MIC [1] [µM] | MIC [2] [µM]
1 | Cc1nc(-c2ccc(C3(C)CC3)cc2)nc(C)c1C(=O)N[C@@H](CCN)C(=O)N(C)[C@@H]1C(=O)N[C@@H](C)C(=O)N[C@H](C(=O)NCC#N)Cc2ccc(OCCN)c(c2)-c2cc1ccc2OCCN (racemic) [Compound 280, rac-(8S,11S,14S)-3,18-bis(2-aminoethoxy)-N-(cyanomethyl)-11-methyl-14-[methyl-[rac-(2S)-4-amino-2-[[4,6-dimethyl-2-[4-(1-methylcyclopropyl)phenyl]pyrimidine-5-carbonyl]amino]butanoyl]amino]-10,13-dioxo-9,12-diazatricyclo[13.3.1.12,6]icosa-1(18),2(20),3,5,15(19),16-hexaene-8-carboxamide] | 0.031 | 0.13
2 | CCC1(c2ccc(-c3nc(C)c(C(=O)N[C@@H](CCN)C(=O)N(C)[C@@H]4C(=O)N[C@@H](C)C(=O)N[C@H](C(=O)NCC#N)Cc5ccc(OCCN)c(c5)-c5cc4ccc5OCCN)c(C)n3)cc2)CC1 (racemic) [Compound 281, rac-(8S,11S,14S)-3,18-bis(2-aminoethoxy)-N-(cyanomethyl)-11-methyl-14-[methyl-[rac-(2S)-4-amino-2-[[2-[4-(1-ethylcyclopropyl)phenyl]-4,6-dimethyl-pyrimidine-5-carbonyl]amino]butanoyl]amino]-10,13-dioxo-9,12-diazatricyclo[13.3.1.12,6]icosa-1(18),2(20),3,5,15(19),16-hexaene-8-carboxamide] | 0.016 | 0.065
3 | CCCC1(c2ccc(-c3nc(C)c(C(=O)N[C@@H](CCN)C(=O)N(C)[C@@H]4C(=O)N[C@@H](C)C(=O)N[C@H](C(=O)NCC#N)Cc5ccc(OCCN)c(c5)-c5cc4ccc5OCCN)c(C)n3)cc2)CC1 (racemic) [Compound 282, rac-(8S,11S,14S)-3,18-bis(2-aminoethoxy)-N-(cyanomethyl)-11-methyl-14-[methyl-[rac-(2S)-4-amino-2-[[4,6-dimethyl-2-[4-(1-propylcyclopropyl)phenyl]pyrimidine-5-carbonyl]amino]butanoyl]amino]-10,13-dioxo-9,12-diazatricyclo[13.3.1.12,6]icosa-1(18),2(20),3,5,15(19),16-hexaene-8-carboxamide] | 0.016 | 0.094
4 | CCCCC1(c2ccc(-c3nc(C)c(C(=O)N[C@@H](CCN)C(=O)N(C)[C@@H]4C(=O)N[C@@H](C)C(=O)N[C@H](C(=O)NCC#N)Cc5ccc(OCCN)c(c5)-c5cc4ccc5OCCN)c(C)n3)cc2)CC1 (racemic) [Compound 283, rac-(8S,11S,14S)-3,18-bis(2-aminoethoxy)-N-(cyanomethyl)-11-methyl-14-[methyl-[rac-(2S)-4-amino-2-[[2-[4-(1-butylcyclopropyl)phenyl]-4,6-dimethyl-pyrimidine-5-carbonyl]amino]butanoyl]amino]-10,13-dioxo-9,12-diazatricyclo[13.3.1.12,6]icosa-1(18),2(20),3,5,15(19),16-hexaene-8-carboxamide] | 0.012 | 0.094
5 | Cc1nc(-c2ccc3c(c2)CCC32CC2)nc(C)c1C(=O)N[C@@H](CCN)C(=O)N(C)[C@@H]1C(=O)N[C@@H](C)C(=O)N[C@H](C(=O)NCC#N)Cc2ccc(OCCN)c(c2)-c2cc1ccc2OCCN (racemic) [Compound 284, rac-(8S,11S,14S)-3,18-bis(2-aminoethoxy)-N-(cyanomethyl)-11-methyl-14-[methyl-[rac-(2S)-4-amino-2-[(4,6-dimethyl-2-spiro[cyclopropane-1,1′-indane]-5′-yl-pyrimidine-5-carbonyl)amino]butanoyl]amino]-10,13-dioxo-9,12-diazatricyclo[13.3.1.12,6]icosa-1(18),2(20),3,5,15(19),16-hexaene-8-carboxamide] | 0.016 | 0.13
6 | Cc1nc(-c2ccc3c(c2)OCCC32CC2)nc(C)c1C(=O)N[C@@H](CCN)C(=O)N(C)[C@@H]1C(=O)N[C@@H](C)C(=O)N[C@H](C(=O)NCC#N)Cc2ccc(OCCN)c(c2)-c2cc1ccc2OCCN (racemic) [Compound 285, rac-(8S,11S,14S)-3,18-bis(2-aminoethoxy)-N-(cyanomethyl)-11-methyl-14-[methyl-[rac-(2S)-4-amino-2-[(4,6-dimethyl-2-spiro[chromane-4,1′-cyclopropane]-7-yl-pyrimidine-5-carbonyl)amino]butanoyl]amino]-10,13-dioxo-9,12-diazatricyclo[13.3.1.12,6]icosa-1(18),2(20),3,5,15(19),16-hexaene-8-carboxamide] | 0.047 | 0.19
7 | Cc1nc(Cc2ccc(C(C)(C)C)cc2)nc(C)c1C(=O)N[C@@H](CCN)C(=O)N(C)[C@@H]1C(=O)N[C@@H](C)C(=O)N[C@H](C(=O)NCC#N)Cc2ccc(OCCN)c(c2)-c2cc1ccc2OCCN (racemic) [Compound 287, rac-(8S,11S,14S)-3,18-bis(2-aminoethoxy)-N-(cyanomethyl)-11-methyl-14-[methyl-[rac-(2S)-4-amino-2-[[2-[(4-tert-butylphenyl)methyl]-4,6-dimethyl-pyrimidine-5-carbonyl]amino]butanoyl]amino]-10,13-dioxo-9,12-diazatricyclo[13.3.1.12,6]icosa-1(18),2(20),3,5,15(19),16-hexaene-8-carboxamide] | 0.065 | 1
8 | Cc1nc(C(C)(C)c2ccc(C(C)(C)C)cc2)nc(C)c1C(=O)N[C@@H](CCN)C(=O)N(C)[C@@H]1C(=O)N[C@@H](C)C(=O)N[C@H](C(=O)NCC#N)Cc2ccc(OCCN)c(c2)-c2cc1ccc2OCCN (racemic) [Compound 288, rac-(8S,11S,14S)-3,18-bis(2-aminoethoxy)-N-(cyanomethyl)-11-methyl-14-[methyl-[rac-(2S)-4-amino-2-[[2-[1-(4-tert-butylphenyl)-1-methyl-ethyl]-4,6-dimethyl-pyrimidine-5-carbonyl]amino]butanoyl]amino]-10,13-dioxo-9,12-diazatricyclo[13.3.1.12,6]icosa-1(18),2(20),3,5,15(19),16-hexaene-8-carboxamide] | 0.023 | 1.5
9 | Cc1nc(C(F)(F)c2ccc(C(C)(C)C)cc2)nc(C)c1C(=O)N[C@@H](CCN)C(=O)N(C)[C@@H]1C(=O)N[C@@H](C)C(=O)N[C@H](C(=O)NCC#N)Cc2ccc(OCCN)c(c2)-c2cc1ccc2OCCN (racemic) [Compound 289, rac-(8S,11S,14S)-3,18-bis(2-aminoethoxy)-N-(cyanomethyl)-11-methyl-14-[methyl-[rac-(2S)-4-amino-2-[[2-[(4-tert-butylphenyl)-difluoro-methyl]-4,6-dimethyl-pyrimidine-5-carbonyl]amino]butanoyl]amino]-10,13-dioxo-9,12-diazatricyclo[13.3.1.12,6]icosa-1(18),2(20),3,5,15(19),16-hexaene-8-carboxamide] | 0.016 | 0.75
10 | Cc1nc(-c2ccc3c(c2)CCOC3(C)C)nc(C)c1C(=O)N[C@@H](CCN)C(=O)N(C)[C@@H]1C(=O)N[C@@H](C)C(=O)N[C@H](C(=O)NCC#N)Cc2ccc(OCCN)c(c2)-c2cc1ccc2OCCN (racemic) [Compound 290, rac-(8S,11S,14S)-3,18-bis(2-aminoethoxy)-N-(cyanomethyl)-11-methyl-14-[methyl-[rac-(2S)-4-amino-2-[[2-(1,1-dimethylisochroman-6-yl)-4,6-dimethyl-pyrimidine-5-carbonyl]amino]butanoyl]amino]-10,13-dioxo-9,12-diazatricyclo[13.3.1.12,6]icosa-1(18),2(20),3,5,15(19),16-hexaene-8-carboxamide] | 0.19 | 0.75
